Earlier results as cited in patent publication US20240307311A1, “STARCH BASED PRINTABLE MATERIALS” (ROQUETTE FRERES, priority 2021, published 2024).

SMILES | solubility in water (descriptive class)
Cn1c(=O)c2c(ncn2CC(O)CO)n(C)c1=O (centres unmarked) [diprophylline] | freely soluble in water
CCC(C)n1ncn(-c2ccc(N3CCN(c4ccc(OCC5COC(Cn6cncn6)(c6ccc(Cl)cc6Cl)O5)cc4)CC3)cc2)c1=O (centres unmarked) [itraconazole] | practically insoluble in water
